Assay [1] concerns oligodendrocyte progenitor cells (OPCs), OPC-5. As to the kind of experiment: Differentiation of OPCs to MBP+ oligodendrocytes (in vitro phenotypic screening, high-content imaging). It is filed as cell-based, mouse. The following applies: for activation at 0.03 µM / activation at 0.1 µM / activation at 0.3 µM / activation at 1 µM: Mus musculus, Oligodendrocyte progenitor cell, 72 h treatment; for activation at 0.03 µM: read-out: % enhancement of MBP+ oligodendrocyte generation at 0.03 μM concentration; for activation at 0.1 µM: read-out: % enhancement of MBP+ oligodendrocyte generation at 0.1 μM concentration; for activation at 0.3 µM: read-out: % enhancement of MBP+ oligodendrocyte generation at 0.3 μM concentration; for activation at 1 µM: read-out: % enhancement of MBP+ oligodendrocyte generation at 1 μM concentration; for enhancement of oligodendrocyte formation (in words): OPC-5, FIGS. 2a-2c. The method, then: To rigorously assess effects of small molecule and genetic treatments on OPCs, all treatments were assayed in two batches of epiblast stem cell-derived OPCs, and key results were confirmed using mouse primary OPCs. OPCs were generated from two separate EpiSC lines, EpiSC5 (giving rise to OPC-5 OPCs) and 12901 (giving rise to OPC-1 OPCs). EpiSC-derived OPCs were obtained using in vitro differentiation protocols and culture conditions described previously. To ensure uniformity throughout all in vitro screening experiments, EpiSC-derived OPCs were sorted to purity by fluorescence activated cell sorting at passage five with conjugated CD 140a-APC (eBioscience, 17-1401; 1:80) and NG2-AF488 (Millipore, AB5320A4; 1:100) antibodies. Sorted batches of OPCs were expanded and frozen down in aliquots. OPCs were thawed into growth conditions for one passage before use in further assays. Cultures were regularly tested and shown to be mycoplasma free.
EpiSC-derived OPCs were grown and expanded in poly-ornithine (PO) and laminin-coated flasks with growth medium (DMEM/F12 supplemented with N2-MAX (R&D Systems), B-27 (ThermoFisher), GlutaMax (Gibco), FGF2 ([…], R&D systems, 233-FB-025) and PDGF-AA ([…], R&D systems, 233-AA-050) before harvesting for plating. The cells were seeded onto poly-D-lysine 96-well CellCarrier or CellCarrierUltra plates (PerkinElmer) coated with laminin (Sigma, L2020; 15 μg/ml) using multi-channel pipet. For the experiment, 800,000 cells/mL stock in differentiation medium (DMEM/F12 supplemented with N2-MAX and B-27) was prepared and stored on ice for 2 h. Then, 40,000 cells were seeded per well in differentiation medium and allowed to attach for 30 min before addition of drug. For dose-response testing of all molecules except sterols, a 1000× compound stock in dimethyl sulphoxide (DMSO) was added to assay plates with 0.1 μL solid pin multi-blot replicators (V & P Scientific; VP 409), resulting in a final primary screening concentration of 1×. Cells were incubated under standard conditions (37° C., 5% CO2) for 3 days and fixed with 4% paraformaldehyde (PFA) in phosphate buffered saline (PBS) for 20 min. Fixed plates were washed with PBS (200 μL per well) twice, permeabilized with 0.1% Triton X-100 and blocked with 10% donkey serum (v/v) in PBS for 40 min. Then, cells were labelled with MBP antibodies (Abcam, ab7349; 1:200) for 16 h at 4° C. followed by detection with Alexa Fluor conjugated secondary antibodies (1:500) for 45 min. Nuclei were visualized by DAPI staining (Sigma; 1 μg/ml). During washing steps, PBS was added using a multi-channel pipet and aspiration was performed using Biotek EL406 washer dispenser (Biotek) equipped with a 96-well aspiration manifold.
Plates were imaged on the Operetta High Content Imaging and Analysis system (PerkinElmer) and a set of 6 fields captured from each well resulting in an average of 1200 cells being scored per well. Analysis (PerkinElmer Harmony and Columbus software) began by identifying intact nuclei stained by DAPI; that is, those traced nuclei that were larger than 300 μm2 in surface area. Each traced nucleus region was then expanded by 50% and cross-referenced with the […] (MBP) stain to identify oligodendrocyte nuclei, and from this the percentage of oligodendrocytes was calculated.

Assay [2] deals with cholesterol biosynthesis in OPCs (CYP51, TM7SF2, EBP). As to the kind of experiment: GC/MS-based sterol profiling in OPCs. It is filed as cell-based, mouse. The following applies: GC-MS. The method, then: EpiSC-derived OPCs were plated at 0.5 million cells per ml in PDL- and laminin-coated six or twelve well plate with differentiation media. After 24 hours, cells were dissociated with Accutase, rinsed with saline, and cell pellets were frozen. For sterol analyses, cells were lysed in methanol (Sigma-Aldrich) with agitation for 30 minutes and cell debris removed by centrifugation at 10,000 rpm for 15 min. Cholesterol-d7 standard (25,26,26,26,27,27,27-^2H7-cholesterol, Cambridge Isotope Laboratories) was added before drying under nitrogen stream and derivatization with 55 μl of bis(trimethylsilyl)trifluoroacetamide/trimethylchlorosilane to form trimethylsilyl derivatives. Following derivatization at 60° C. for 20 minutes, 1 μl was analyzed by gas chromatography/mass spectrometry using an Agilent 5973 Network Mass Selective Detector equipped with a 6890 gas chromatograph system and a HP-5MS capillary column ([…]). Samples were injected in splitless mode and analyzed using electron impact ionization. Ion fragment peaks were integrated to calculate sterol abundance, and quantitation was relative to cholesterol-d7. The following m/z ion fragments were used to quantitate each metabolite: cholesterol-d7 (465), FF-Mas (482), cholesterol (368), zymostenol (458), zymosterol (456), desmosterol (456, 343), 7-dehydrocholesterol (456, 325), lanosterol (393), lathosterol (458), 14-dehydrozymostenol (456). Calibration curves were generated by injecting varying concentrations of sterol standards and maintaining a fixed amount of cholesterol-D7. The human glioma cell line GBM528 was a gift of Jeremy Rich (Cleveland Clinic). Human cortical spheroids were generated as described previously.

As for `CN1CCN(Cc2ccc(-c3ccccc3)cc2)CC1` [Compound 6], in assay [1], the activation at 0.03 µM is at most 20%, the activation at 0.1 µM was 20 to 30%, the activation at 0.3 µM lay in the range of 30 to 40% and the activation at 1 µM lay in the range of 30 to 40%.
In the case of `OC1CCN(Cc2ccc(-c3ccccc3)cc2)CC1` [Compound 16], in assay [1], the activation at 0.03 µM fell in the range of 20 to 30%, the activation at 0.1 µM lay in the range of 20 to 30%, the activation at 0.3 µM lay within 20 to 30% and the activation at 1 µM is 30 to 40%.
Regarding `OCC1CCCN(Cc2ccc(-c3ccccc3)cc2)C1` (stereo not drawn) [Compound 9], in assay [1], the activation at 0.03 µM was 20 to 30%, the activation at 0.1 µM lay within 20 to 30%, the activation at 0.3 µM was in the range of 30 to 40% and the activation at 1 µM was in the range of 30 to 40%.
For `OC1CCCN(Cc2ccc(-c3ccccc3)cc2)C1` (stereo not drawn) [Compound 8], in assay [1], the activation at 0.03 µM was in the range of 20 to 30%, the activation at 0.1 µM fell in the range of 20 to 30%, the activation at 0.3 µM fell in the range of 30 to 40% and the activation at 1 µM fell in the range of 30 to 40%.
Take `c1ccc(-c2ccc(CN3CCCCCC3)cc2)cc1` [Compound 3]: in assay [1], the activation at 0.03 µM lay within 20 to 30%, the activation at 0.1 µM is 20 to 30%, the activation at 0.3 µM fell in the range of 30 to 40% and the activation at 1 µM was over 40%.
With `c1ccc(-c2ccc(CNCCc3ccc(CN4CCCCC4)cc3)cc2)cc1` [Compound 18], in assay [1], the activation at 0.03 µM is 20 to 30%, the activation at 0.1 µM was 20 to 30%, the activation at 0.3 µM was in the range of 20 to 30% and the activation at 1 µM was 30 to 40%.
In the case of `Clc1ccc(CN2CCN(Cc3ccccc3)CC2)cc1Cl` [Compound 5], in assay [1], the activation at 0.03 µM was at most 20%, the activation at 0.1 µM was 20 to 30%, the activation at 0.3 µM lay in the range of 30 to 40% and the activation at 1 µM fell in the range of 30 to 40%.
Turning to `Clc1ccc(CN2CCCCCCC2)cc1Cl` [Compound 17], in assay [1], the activation at 0.03 µM was at most 20%, the activation at 0.1 µM is at most 20%, the activation at 0.3 µM is at most 20% and the activation at 1 µM is at most 20%.
Regarding `CCN1CCN(Cc2ccc(-c3ccccc3)cc2)CC1` [Compound 2], in assay [1], the activation at 0.03 µM fell in the range of 20 to 30%, the activation at 0.1 µM was in the range of 30 to 40%, the activation at 0.3 µM is over 40% and the activation at 1 µM is over 40%.
Take `NC(=O)C1CCN(Cc2ccc(-c3ccccc3)cc2)CC1` [Compound 13]: in assay [1], the activation at 0.03 µM lay in the range of 20 to 30%, the activation at 0.1 µM fell in the range of 20 to 30%, the activation at 0.3 µM lay in the range of 30 to 40% and the activation at 1 µM was over 40%.
Regarding `OCC1CCCCN1Cc1ccc(Cl)c(Cl)c1` (stereo not drawn) [Compound 11], in assay [1], the activation at 0.03 µM fell in the range of 20 to 30%, the activation at 0.1 µM was in the range of 30 to 40%, the activation at 0.3 µM is over 40% and the activation at 1 µM was over 40%. For the same compound, the “enhancement of oligodendrocyte formation (in words)” value in assay [1] is “strongly promoted oligodendrocyte formation”.
Regarding `Clc1ccc(CN2CCCCCC2)cc1Cl` [Compound 15], in assay [1], the activation at 0.03 µM was at most 20%, the activation at 0.1 µM fell in the range of 20 to 30%, the activation at 0.3 µM fell in the range of 30 to 40% and the activation at 1 µM lay within 30 to 40%.
`CSc1ccc(CN2CCCCC2CO)cc1` (stereo not drawn) [Compound 14]: in assay [1], the activation at 0.03 µM fell in the range of 20 to 30%, the activation at 0.1 µM lay within 30 to 40%, the activation at 0.3 µM lay within 30 to 40% and the activation at 1 µM fell in the range of 30 to 40%.
As to `OCCN1CCN(Cc2ccc(-c3ccccc3)cc2)CC1` [Compound 12], in assay [1], the activation at 0.03 µM was at most 20%, the activation at 0.1 µM fell in the range of 20 to 30%, the activation at 0.3 µM lay in the range of 30 to 40% and the activation at 1 µM was over 40%.
For `c1ccc(-c2ccc(CN3CCSCC3)cc2)cc1` [Compound 7], in assay [1], the activation at 0.03 µM was at most 20%, the activation at 0.1 µM lay within 30 to 40%, the activation at 0.3 µM was in the range of 20 to 30% and the activation at 1 µM was 30 to 40%.
`CCCCOc1ccc(CN2CCCCC2CC)cc1` (stereo not drawn) [Compound 4]: in assay [1], the activation at 0.03 µM is at most 20%, the activation at 0.1 µM fell in the range of 20 to 30%, the activation at 0.3 µM is at most 20% and the activation at 1 µM fell in the range of 20 to 30%.
Consider `CC(C)C(=O)NC(Cc1ccc(OCc2ccccc2)cc1)C(=O)NCCCN(C)c1ccccc1` (stereo not drawn) [Compound 19], for which the “cholesterol biosynthesis in OPCs” value in assay [2] (10 μM screening dose) is reported as “inhibition of cholesterol biosynthesis”. For the same compound, the “lanosterol accumulation in OPCs (indicative of CYP51 inhibition)” value in assay [2] (10 μM) was “accumulation of the 8,9-unsaturated sterol lanosterol”. In assay [1], the activation at 0.03 µM lay in the range of 20 to 30%, the activation at 0.1 µM lay within 20 to 30%, the activation at 0.3 µM lay in the range of 30 to 40% and the activation at 1 µM lay within 30 to 40%. Further, in assay [1] (wide concentration range), the “EC50 for enhancing oligodendrocyte formation” value was “mid-nanomolar range”.
With `CN(C(=O)c1ccc(-c2ccccc2)cc1)[C@@H]1Cc2ccc(CN3CCCCC3CO)cc2C1` (stereo partly drawn) [Compound 10], the “14-dehydrozymostenol accumulation in OPCs (indicative of TM7SF2 inhibition)” value in assay [2] (1 μM) is on record as “accumulated 14-dehydrozymostenol”. In assay [1], the activation at 0.03 µM is 20 to 30%, the activation at 0.1 µM was 30 to 40%, the activation at 0.3 µM is over 40% and the activation at 1 µM was over 40%. Also, the “enhancement of oligodendrocyte formation (in words)” value in assay [1] was “strongly promoted oligodendrocyte formation”.
